“Also recorded” adds a separate entry of the source.
Experiments:
monoamine oxidase-A = target: T1, monoamine oxidase-A (Rattus norvegicus, UniProt P21396); experiment: in vitro monoamine oxidase-A inhibiting activity (radiochemical, 5-hydroxytryptamine substrate); type: biochemical; details: read-out: % MAO-A Inhibition; for inhibition at 1000 µg/mL: 1.0 mg/ml; for inhibition at 10000 µg/mL: 10 mg/ml
T1 construct: homogenates of rat brain; from tissue; host or cells: rat brain homogenate
T1 sequence (P21396 1-526): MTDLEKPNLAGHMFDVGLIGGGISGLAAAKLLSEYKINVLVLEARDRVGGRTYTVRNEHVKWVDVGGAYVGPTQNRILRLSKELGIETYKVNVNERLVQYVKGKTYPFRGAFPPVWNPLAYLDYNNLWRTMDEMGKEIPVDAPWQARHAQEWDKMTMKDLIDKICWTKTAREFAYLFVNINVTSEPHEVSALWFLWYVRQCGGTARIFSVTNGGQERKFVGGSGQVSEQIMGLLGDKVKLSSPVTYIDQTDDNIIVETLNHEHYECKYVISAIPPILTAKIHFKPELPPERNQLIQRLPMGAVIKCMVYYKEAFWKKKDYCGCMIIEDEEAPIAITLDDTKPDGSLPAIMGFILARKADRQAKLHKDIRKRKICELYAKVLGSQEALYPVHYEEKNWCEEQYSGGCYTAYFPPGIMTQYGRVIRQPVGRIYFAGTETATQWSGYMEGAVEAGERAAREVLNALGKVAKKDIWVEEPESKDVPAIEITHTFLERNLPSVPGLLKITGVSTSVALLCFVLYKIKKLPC
Method: (§1) Example 1 is a study of the effects of several extracts of HT1001, PQ4, PQ5, PQ6 and pure ginsenosides, on monoamine oxidase A (MAO A) and monoamine oxidase B (MAO B) activity in vitro.
(§2) HT-1001, related extracts and pure ginsenosides were evaluated for in vitro monoamine oxidase-A and monoamine oxidase-B inhibiting activity using the radiochemical procedure of Lyles and Callingham, Biochem. Pharmacol. 31: 1417-1424 (1982), employing either radiolabelled 5-hydroxytryptamine or β-phenylethylamine as substrates for monoamine oxidase-A (MAO-A) or monoamine oxidase-B (MAO-B) respectively. Various concentrations of the compounds of interest were incubated in appropriately diluted homogenates of rat brain in a 0.2 M potassium phosphate buffer. After a 15 minute preincubation period the reaction was initiated by the addition of substrate. Incubations proceded at 37° C. for 10 minutes. Incubation was terminated by the addition of acid and the radiolabelled products (5-hydroxyindoleacetic acid, 5-hydroxyindoleacetaldehyde or phenylacetic acid, phenylacetaldehyde) were extracted and quantified by liquid scintillation counting procedures. Incubations were done in triplicate and incubations including pheneizine a known MAO inhibitor were included as controls and for comparison. The percent inhibition of monoamine oxidase-A or monoamine oxidase-B activity compared to controls containing no experimental material was calculated.

monoamine oxidase-B = target: T2, monoamine oxidase-B (Rattus norvegicus, UniProt P19643); experiment: in vitro monoamine oxidase-B inhibiting activity (radiochemical, β-phenylethylamine substrate); type: biochemical; details: read-out: % MAO-B Inhibition; for inhibition at 1000 µg/mL: 1.0 mg/ml; for inhibition at 10000 µg/mL: 10 mg/ml
T2 construct: homogenates of rat brain; from tissue; host or cells: rat brain homogenate
T2 sequence (P19643 1-520): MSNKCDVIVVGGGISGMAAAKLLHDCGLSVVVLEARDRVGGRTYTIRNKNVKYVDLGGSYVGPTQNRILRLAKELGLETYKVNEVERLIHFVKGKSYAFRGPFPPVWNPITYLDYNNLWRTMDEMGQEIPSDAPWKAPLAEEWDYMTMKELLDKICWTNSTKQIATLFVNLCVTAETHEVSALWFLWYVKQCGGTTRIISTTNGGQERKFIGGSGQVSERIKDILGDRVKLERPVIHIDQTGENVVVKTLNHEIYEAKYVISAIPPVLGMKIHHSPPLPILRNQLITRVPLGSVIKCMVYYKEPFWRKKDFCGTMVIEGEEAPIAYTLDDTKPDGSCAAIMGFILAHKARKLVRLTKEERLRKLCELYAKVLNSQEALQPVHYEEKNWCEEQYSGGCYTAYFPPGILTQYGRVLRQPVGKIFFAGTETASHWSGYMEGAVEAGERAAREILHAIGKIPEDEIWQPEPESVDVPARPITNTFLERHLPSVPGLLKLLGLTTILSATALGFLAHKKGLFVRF
Method: as §1, §2

T type calcium channel = T type calcium channel currents in N1E115 neuroblastoma cells (whole-cell patch-clamp); type: cell-based, mouse; details: same concentration (100 μM); N1E-115 cells
Method: (§3) A study of the effects of HT1001 and some pure ginsenosides on calcium channel activity in cultured neuroblastoma cells was conducted.
(§4) Neuroblastoma Cell Culture. Mouse neuroblastoma cells (N1E115) were cultured in Dulbecco's modified Eagle's medium (GIBCO) containing 10% fetal bovine serum at 37° C. in a humidified atmosphere of 5% CO2 in air. The medium was changed every 3-4 days. After mechanical agitation, 3×10^4 cells were replanted in 35 mm tissue culture dishes containing 4 ml of bath solution. After cell attachment, the dish was mounted on the stage of an inverted phase-contrast microscope (Nikon) for Ca^2+ channel current recording. These cells expressed predominately T channel currents. In experiments where L channels were specifically sought, the cells were grown and maintained at confluence for 3-4 weeks under the same culture conditions with the addition of 2% (vol/vol) dimethyl sulfoxide. Three to five days before use, the cells were replanted with the same medium. These cells expressed predominately L channel currents. […]
(§5) Ca^2+ Channel Current Recording in Neuroblastoma Cells. […] Since the peak currents measured with 20 mM Ba^2+ as the charge carrier were usually small (about 200 pA) the series resistance compensation was not usually employed. […] For every single-cell recording, stable readings were first obtained for 5 min; the drug was then added to the bath solution. […]

L type calcium channel = L type calcium channel currents in N1E115 neuroblastoma cells (whole-cell patch-clamp); type: cell-based, mouse; details: same concentration (100 μM); N1E-115 cells
Method: as §3, §4, §5

5-hydroxytryptamine = details: rat and mouse brain; Zhang et al 1990; cited from earlier work

inhibition at 1000 µg/mL (monoamine oxidase-A) [%]	inhibition at 10000 µg/mL (monoamine oxidase-A) [%]	inhibition at 1000 µg/mL (monoamine oxidase-B) [%]	inhibition at 10000 µg/mL (monoamine oxidase-B) [%]	SMILES	effect on T type calcium channel currents (T type calcium channel)	effect on L type calcium channel currents (L type calcium channel)	levels of 5-hydroxytryptamine and 5-hydroxyindoleacetic acid (5-hydroxytryptamine)
-6.9	7.1	-11.6	-7.8	CC(C)=CCC[C@](C)(O[C@@H]1O[C@H](CO[C@@H]2O[C@H](CO)[C@@H](O)[C@H](O)[C@H]2O)[C@@H](O)[C@H](O)[C@H]1O)[C@H]1CC[C@]2(C)[C@@H]1[C@H](O)C[C@@H]1[C@@]3(C)CC[C@H](O[C@@H]4O[C@H](CO)[C@@H](O)[C@H](O)[C@H]4O[C@@H]4O[C@H](CO)[C@@H](O)[C@H](O)[C@H]4O)C(C)(C)[C@@H]3CC[C@]12C [Rb1, ginsenoside Rb1]	significant inhibitory effect; also recorded: inhibitory effects	significant inhibitory effect; also recorded: inhibitory effects	decrease the levels
-10.8	5.1	-7.2	-5	CC(C)=CCC[C@](C)(O[C@@H]1O[C@H](CO)[C@@H](O)[C@H](O)[C@H]1O)[C@H]1CC[C@]2(C)[C@@H]1[C@H](O)C[C@@H]1[C@@]3(C)CC[C@H](O)C(C)(C)[C@@H]3[C@@H](O[C@@H]3O[C@H](CO)[C@@H](O)[C@H](O)[C@H]3O)C[C@]12C [Rg1, ginsenoside Rg1]	significant inhibitory effect; also recorded: inhibitory effects	significant inhibitory effect; also recorded: inhibitory effects	decrease the levels

Reference: patent publication US6083932A, “Pharmaceutical compositions derived from ginseng and methods of treatment using same” (CV Technologies Inc., priority 1998, dated 2000)
